Structures are written as SMILES.

One series deals with narcolepsy. As to conditions: in vivo; cited from earlier work.
For series [1], the system named is subjects with Idiopathic Hypersomnia. The series is described as follows: Safety of sodium oxybate (Xyrem) oral solution (Example 2). As to conditions: in vivo. Further details: species or system human. An excerpt: (§1) This is a study of the efficacy and safety of sodium oxybate (Xyrem) oral solution in subjects with Idiopathic Hypersomnia. The study design is analogous to the study described in Example 1.
(§2) Subjects who complete the Double-blind Randomized Withdrawal Period will enter a 24-week Open-label Safety Extension Period as described in Example 1. A Safety Follow-up visit will occur 2 weeks after the Open-label Safety Extension Period (completion of study).

Series [2] has the same test system. Description: Study of the efficacy of sodium oxybate (Xyrem) oral solution: ESS, PGIc, IHSS (Example 2). As to conditions: randomized withdrawal portion of the trial. Format: in vivo, human.
From the text: as §1
During the Open-label Treatment Titration and Optimization Period subjects will initiate sodium oxybate as either as a once or twice nightly dosing regimen at the discretion of the investigator. The dosing regimen of sodium oxybate may be adjusted as described in Example 1 until an optimally effective and tolerable dose regimen is established. The aim of the sodium oxybate dose titration and optimization is to maximize efficacy (reduction in IH symptoms, e.g., EDS, sleep inertia, and long sleep duration) while ensuring adequate nocturnal sleep and minimizing risk associated with safety and tolerability.
Subjects who have reached an optimized dosing regimen, and who have completed the Open label Treatment Titration and Optimization Period, will then enter the 2-week Stable Dose Period as described in Example 1.
Subjects who meet the randomization criteria at the end of the Stable Dose Period will be randomized to receive sodium oxybate at the stable dose and regimen or placebo at a volume and regimen equivalent to the sodium oxybate dose and regimen for 2 weeks. Randomization will be stratified by the subject's use of stimulant agent at baseline per the following baseline medication groups: 1) subjects not currently taking sodium oxybate but are taking a stimulant or alerting agent; or 2) subjects not currently taking sodium oxybate or a stimulant or alerting agent.
as §2

In the case of `O=C(O)CCCO` [GHB, gamma-hydroxybutyrate], in the series on narcolepsy, the REM latency entry is given as “decreases”; the “signs and symptoms of narcolepsy (daytime sleepiness, cataplexy, sleep paralysis, hypnagogic hallucinations)” value is given as “substantially reduces”; the sleep apnea result is “reduces”; the “total sleep time and REM sleep” value is listed as “increases”.
Turning to `O=C(O)CCCO` [sodium oxybate], the overall safety profile result in series [1] is “consistent with that previously reported for sodium oxybate (Xyrem)”. For the same compound, in series [2], the “ESS score during randomized withdrawal” value is reported as “clinically meaningful maintenance of efficacy”, the “IHSS during randomized withdrawal” value was “clinically meaningful maintenance of efficacy” and the “change in PGIc scores during randomized withdrawal” value is “clinically meaningful maintenance of efficacy”.

The values above are taken from US12582622B2, “Sodium oxybate to treat idiopathic hypersomnia” (priority 2020, dated 2026).
